Results taken from patent US8759356B2, “Compounds and methods for controlling fungi” (Dow AgroSciences, LLC., priority 2009, dated 2014).

Key:
[1] = tested on: Septoria tritici (SEPTTR); experiment: Three day curative test against Septoria blotch of wheat; format: in vivo; settings: wheat 'Yuma' seedlings, treated three days after inoculation
Protocol: (§1) It will be understood by those in the art that the efficacy of the compounds against the foregoing fungi establishes the general utility of the compounds as fungicides. The activity of the compounds as effective fungicides was determined by applying the compounds to plants and observing control of fungal disease. The compounds were formulated at rates of 50 ppm and 200 ppm in 10 vol. % acetone plus 90 vol. % Triton X water (deionized water 99.99 wt %+0.01 wt % Triton X100), giving a “formulated test compound.” Formulated test compounds were applied to plants using a turntable sprayer fitted with two opposing air atomization nozzles which delivered approximately 1500 L/ha of spray volume.
Measuring the Curative Effect of Various Compounds Against Septoria Blotch of Wheat (Causal Agent Bayer Code SEPTTR).
Each pot contained 3-10 seedlings. These plants were inoculated with an aqueous spore suspension of Septoria tritici and the plants were kept in high humidity (one day in a dark dew chamber followed by two days in a lighted dew chamber) to permit the spores to germinate and to infect the leaf. The plants were then removed form the dew chamber and allowed to dry. After drying, the inoculated plants were sprayed until wet with the formulated test compound. On the following day, the plants were transferred to a greenhouse until disease developed on untreated control plants. These tests were carried out using two different levels of the compound, 50 ppm and 200 ppm, see Table 1.
(§2) Disease control was determined by visually estimating the percent disease severity in treated and untreated pots 7 to 24 days after inoculation, depending on speed of disease development. Evaluations were typically made 7 or 8 days after inoculation for PUCCRT and 18 to 22 days after inoculation for SEPTTR. Percent disease control (% DC) was calculated by: % DC=(1−% Disease severity treated/% disease severity untreated)*100.

[2] = tested on: Septoria tritici (SEPTTR); experiment: One day protectant test against Septoria blotch of wheat; format: in vivo; settings: wheat 'Yuma' seedlings, inoculated the day after treatment
Protocol: as §1
(§3) Again referring to Table 1, tests were carried out to determine a given exemplary compound's ability to prevent or at least limit a fungal infection as follows. All plants in the study were inoculated with spores of the fungus in this case either PUCCRT or SEPTTR) the day after treatment with the putative fungicide. Next, the plants were incubated in an environment conducive to disease development. Disease severity was evaluated 7 to 25 days later, depending on the speed of disease development. The following experiments were performed in the laboratory to determine the fungicidal efficacy of the compounds of the invention.
Measuring the Preventative Effect of Various Compounds Against Septoria Blotch of Wheat (Causal Agent Bayer Code SEPTTR).
Each pot contained 3-10 seedlings. These plants were sprayed until wet with the formulated test compound. On the following day, the leaves were inoculated with an aqueous spore suspension of Septoria tritici and the plants were kept in high humidity (one day in a dark dew chamber followed by three days in a lighted dew chamber) to permit the spores to germinate and to infect the leaf. The plants were then transferred to a greenhouse until disease developed on untreated control plants. These tests were carried out using two different levels of the compound, 50 ppm and 200 ppm, see Table 1.
as §2

[3] = tested on: Puccinia recondita tritici (PUCCRT); experiment: One day protectant test against leaf rust of wheat; format: in vivo; settings: wheat 'Yuma' seedlings, inoculated the day after treatment
Protocol: as §1, §3
Measuring the Protective Effect of Various Compounds Against Leaf Rust of Wheat (Causal Agent Bayer Code PUCCRT).
Each pot contained 3-8 seedlings. These plants were sprayed until wet with the formulated test compounds. On the following day, the leaves were inoculated with an aqueous spore suspension of Puccinia recondita tritici and the plants were kept in high humidity overnight to permit the spores to germinate and to infect the leaf. The plants were then transferred to a greenhouse until disease developed on untreated control plants. These tests were carried out using two different levels of the compound, 50 ppm and 200 ppm, see Table 1.
as §2

SMILES: Clc1ccc(-c2ncc(Cl)c(NC3CC3)n2)cc1 [Example 1]
- melting point: 103 to 105 °C
- Percent Disease Control, Three Day Curative, SEPTTR ([1]; 50 ppm spray): 0%
- Percent Disease Control, Three Day Curative, SEPTTR ([1]; 200 ppm spray): 0%
- Percent Disease Control, One Day Protectant, SEPTTR ([2]; 50 ppm spray): 90%
- Percent Disease Control, One Day Protectant, SEPTTR ([2]; 200 ppm spray): 97%
- Percent Disease Control, One Day Protectant, PUCCRT ([3]; 50 ppm spray): 93%
- Percent Disease Control, One Day Protectant, PUCCRT ([3]; 200 ppm spray): 97%

SMILES: Clc1ccc(-c2ncc(Cl)c(NC3CC3)n2)cc1Cl [compound 2]
- Percent Disease Control, Three Day Curative, SEPTTR ([1]; 50 ppm spray): 62%
- Percent Disease Control, Three Day Curative, SEPTTR ([1]; 200 ppm spray): 72%
- Percent Disease Control, One Day Protectant, SEPTTR ([2]; 50 ppm spray): 0%
- Percent Disease Control, One Day Protectant, SEPTTR ([2]; 200 ppm spray): 35%
- Percent Disease Control, One Day Protectant, PUCCRT ([3]; 50 ppm spray): 0%
- Percent Disease Control, One Day Protectant, PUCCRT ([3]; 200 ppm spray): 0%

SMILES: Fc1cc(Cl)ccc1-c1ncc(Cl)c(NC2CC2)n1 [compound 4]
- Percent Disease Control, Three Day Curative, SEPTTR ([1]; 50 ppm spray): 0%
- Percent Disease Control, Three Day Curative, SEPTTR ([1]; 200 ppm spray): 18%
- Percent Disease Control, One Day Protectant, SEPTTR ([2]; 50 ppm spray): 38%
- Percent Disease Control, One Day Protectant, SEPTTR ([2]; 200 ppm spray): 86%
- Percent Disease Control, One Day Protectant, PUCCRT ([3]; 50 ppm spray): 50%
- Percent Disease Control, One Day Protectant, PUCCRT ([3]; 200 ppm spray): 99%

SMILES: Clc1cnc(-c2ccccc2)nc1NC1CC1 [compound 5]
- Percent Disease Control, Three Day Curative, SEPTTR ([1]; 50 ppm spray): 0%
- Percent Disease Control, Three Day Curative, SEPTTR ([1]; 200 ppm spray): 0%
- Percent Disease Control, One Day Protectant, SEPTTR ([2]; 50 ppm spray): 38%
- Percent Disease Control, One Day Protectant, SEPTTR ([2]; 200 ppm spray): 90%
- Percent Disease Control, One Day Protectant, PUCCRT ([3]; 50 ppm spray): 99%
- Percent Disease Control, One Day Protectant, PUCCRT ([3]; 200 ppm spray): 99%

SMILES: Cc1ccc(-c2ncc(Cl)c(NC3CC3)n2)cc1 [compound 6]
- Percent Disease Control, Three Day Curative, SEPTTR ([1]; 50 ppm spray): 0%
- Percent Disease Control, Three Day Curative, SEPTTR ([1]; 200 ppm spray): 27%
- Percent Disease Control, One Day Protectant, SEPTTR ([2]; 50 ppm spray): 65%
- Percent Disease Control, One Day Protectant, SEPTTR ([2]; 200 ppm spray): 95%
- Percent Disease Control, One Day Protectant, PUCCRT ([3]; 50 ppm spray): 97%
- Percent Disease Control, One Day Protectant, PUCCRT ([3]; 200 ppm spray): 99%

SMILES: Clc1ccc(-c2nc(NC3CC3)ncc2Cl)cc1 [compound 7]
- Percent Disease Control, Three Day Curative, SEPTTR ([1]; 50 ppm spray): 50%
- Percent Disease Control, Three Day Curative, SEPTTR ([1]; 200 ppm spray): 50%
- Percent Disease Control, One Day Protectant, SEPTTR ([2]; 50 ppm spray): 91%
- Percent Disease Control, One Day Protectant, SEPTTR ([2]; 200 ppm spray): 61%
- Percent Disease Control, One Day Protectant, PUCCRT ([3]; 50 ppm spray): 53%
- Percent Disease Control, One Day Protectant, PUCCRT ([3]; 200 ppm spray): 0%
